According to US20250092039A1, “GLUTARIMIDE-CONTAINING PAN-KRAS-MUTANT DEGRADER COMPOUNDS AND USES THEREOF” (Tiger Biotherapeutics Inc., priority 2022, published 2025):
pIC50: −log10 of the molar value. Read-outs that look alike come from different tables or passages of the source.

Experiments:
KRAS G12V = KRAS G12V (Homo sapiens (Human), UniProt P01116, G12V); experiment: KRAS G12V degradation in SW620 cells (Western blot, DC50); format: cell-based; details: 24 hours
Summary of the method: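 SW620 cells (homozygous KRAS G12V) were treated with compound for 24 hours at 37° C. KRAS in lysates was measured by Western blot with fluorescent secondary antibodies and expressed relative to DMSO vehicle (100%). DC50 came from a four-parameter variable-slope dose-response fit.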

[1] = Pharmacokinetics following single intravenous and oral gavage dosing (AUC0-24h); format: in vivo; details: mouse, plasma, male CD-1 mice
Method: Compounds disclosed herein were studied for animal tolerability and pharmacokinetics following single intravenous (iv) and oral gavage (po) dosing to male CD-1 mice. For each compound in each dosing route, 3 mice were used with iv dosing volume of 5 mL/kg and po dosing volume of 10 mL/kg. The compounds were formulated in 10% DMSO, 30% PEG400, 60% aqueous solution containing 20% 2-hydroxypropyl-β-cyclodextrin. Blood sampling time points for iv dosing were 0.083, 0.25, 0.5, 1, 2, 4, 8 and 24 h. The sampling time points for po dosing were 0.25, 0.5, 1, 2, 4, 6, 8 and 24 h. Mice activities were monitored and recorded immediately following the dosing. The prepared plasma samples were analyzed using LC/MS/MS on AB Sciex Triple Quad 5500+ system. The PK parameters were determined by non-compartmental analysis using WinNonlin (Version 8.0).

KRAS-G12V/RAF1 = KRAS-G12V/RAF1 (Homo sapiens (Human), UniProt P01116, G12V); experiment: KRAS/RAF1 binding inhibition assay (AlphaScreen)
Summary of the method: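 Binding of GppNHp-loaded KRAS G12V to the RAF1 RBD was measured by AlphaScreen with test compound present in 2% DMSO (final), 60 min incubation at 4° C. Signals were converted to % inhibition versus DMSO, and IC50 was obtained by variable-slope nonlinear regression.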

SW620 cells = experiment: 3D cell growth inhibition of SW620 cells carrying endogenous KRAS G12V mutation (CellTiter-Glo 3D, GI50); format: cell-based; details: Homo sapiens, SW-620, 144 h, read-out: SW620 3D cell growth GI50
Summary of the method: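 SW620 cells (endogenous KRAS G12V) grown in 3D were dosed next day with compound from DMSO stocks at various concentrations, then incubated 6 days at 37° C.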

Chain of KRAS G12V (P01116-2 other isoform, or with tags, fused parts or gaps G12V): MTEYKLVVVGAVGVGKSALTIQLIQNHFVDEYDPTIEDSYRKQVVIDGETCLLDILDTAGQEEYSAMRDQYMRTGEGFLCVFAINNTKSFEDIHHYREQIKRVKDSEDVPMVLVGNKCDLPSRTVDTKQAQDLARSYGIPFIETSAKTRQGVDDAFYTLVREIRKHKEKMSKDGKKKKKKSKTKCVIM
Chain of KRAS-G12V/RAF1 (P01116-2 other isoform, or with tags, fused parts or gaps G12V): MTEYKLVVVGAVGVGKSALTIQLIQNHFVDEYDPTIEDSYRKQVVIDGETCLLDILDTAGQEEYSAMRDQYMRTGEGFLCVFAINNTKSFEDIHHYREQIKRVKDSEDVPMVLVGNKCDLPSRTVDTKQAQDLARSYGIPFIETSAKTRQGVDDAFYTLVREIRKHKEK

Row | Structure (SMILES) | DC50 (KRAS G12V) | AUC(0-t) ([1]; single oral dose 15 mg/Kg) | pIC50 (KRAS-G12V/RAF1) | GI50 (SW620 cells; SW620 cells, 6 days) | AUC(0-t) ([1]; single oral dose 30 mg/Kg) | GI50 (SW620 cells) | AUC(0-t) ([1]; single oral dose 50 mg/Kg)
1 | CCc1c(F)ccc2cc(O)cc(-c3ncc4c(N5CCC[C@]6(CCO6)C5)nc(OCC5(CN6CCC(CN7CCN(c8cc(F)c(C9CCC(=O)NC9=O)c(F)c8)CC7)CC6)CC5)nc4c3F)c12 (stereo partly drawn) [Compound 216, 3-(4-(4-((1-((1-(((7-(8-ethyl-7-fluoro-3-hydroxynaphthalen-1-yl)-8-fluoro-4-((S)-1-oxa-6-azaspiro[3.5]nonan-6-yl)pyrido[4,3-d]pyrimidin-2-yl)oxy)methyl)cyclopropyl)methyl)piperidin-4-yl)methyl)piperazin-1-yl)-2,6-difluorophenyl)piperidine-2,6-dione] | 1 to 10 nM | 2140 ng·h/mL | < 6.70 | < 10 nM | – | – | –
2 | CCc1c(F)ccc2cc(O)cc(-c3ncc4c(N5CCC[C@]6(CCO6)C5)nc(OCC5(CN6CCC7(CC6)CC(F)(CN6CCN(c8cc(F)c(C9CCC(=O)NC9=O)c(F)c8)CC6)C7)CC5)nc4c3F)c12 (stereo partly drawn) [Compound 215, 3-(4-(4-((7-((1-(((7-(8-ethyl-7-fluoro-3-hydroxynaphthalen-1-yl)-8-fluoro-4-((S)-1-oxa-6-azaspiro[3.5]nonan-6-yl)pyrido[4,3-d]pyrimidin-2-yl)oxy)methyl)cyclopropyl)methyl)-2-fluoro-7-azaspiro[3.5]nonan-2-yl)methyl)piperazin-1-yl)-2,6-difluorophenyl)piperidine-2,6-dione] | < 1 nM | – | 6.70 to 7.70 | < 10 nM | 4710 ng·h/mL | – | –
3 | CCc1c(F)ccc2cc(O)cc(-c3ncc4c(N5CCC[C@@](C)(O)C5)nc(OCC5(CN6CCC(C)(CN7CCN(c8cc(F)c(C9CCC(=O)NC9=O)c(F)c8)CC7)CC6)CC5)nc4c3F)c12 (stereo partly drawn) [Compound 48, 3-(4-(4-((1-((1-(((7-(8-ethyl-7-fluoro-3-hydroxynaphthalen-1-yl)-8-fluoro-4-((R)-3-hydroxy-3-methylpiperidin-1-yl)pyrido[4,3-d]pyrimidin-2-yl)oxy)methyl)cyclopropyl)methyl)-4-methylpiperidin-4-yl)methyl)piperazin-1-yl)-2,6-difluorophenyl)piperidine-2,6-dione] | 1 to 10 nM | – | 6.70 to 7.70 | – | 17200 ng·h/mL | < 10 nM | –
4 | CCc1c(F)ccc2cc(O)cc(-c3ncc4c(N5CCC[C@@](C)(O)C5)nc(OCC5(CN6CCC7(CCC(N8CCN(c9ccc%10c(c9)CN([C@H]9CCC(=O)NC9=O)C%10=O)CC8)CC7)CC6)CC5)nc4c3F)c12 [Compound 120, (S)-3-(5-(4-(3-((1-(((7-(8-ethyl-7-fluoro-3-hydroxynaphthalen-1-yl)-8-fluoro-4-((R)-3-hydroxy-3-methylpiperidin-1-yl)pyrido[4,3-d]pyrimidin-2-yl)oxy)methyl)cyclopropyl)methyl)-3-azaspiro[5.5]undecan-9-yl)piperazin-1-yl)-1-oxoisoindolin-2-yl)piperidine-2,6-dione] | 1 to 10 nM | – | > 7.70 | < 10 nM | – | – | 255 ng·h/mL
5 | CCc1cccc2cc(O)cc(-c3ncc4c(N5CCC[C@@](C)(O)C5)nc(OCC5(CN6CCC(F)(CN7CC8(CCN(c9ccc%10c(c9)CN(C9CCC(=O)NC9=O)C%10=O)CC8)C7)CC6)CC5)nc4c3F)c12 (stereo partly drawn) [Compound 28, 3-(5-(2-((1-((1-(((7-(8-ethyl-3-hydroxynaphthalen-1-yl)-8-fluoro-4-((R)-3-hydroxy-3-methylpiperidin-1-yl)pyrido[4,3-d]pyrimidin-2-yl)oxy)methyl)cyclopropyl)methyl)-4-fluoropiperidin-4-yl)methyl)-2,7-diazaspiro[3.5]nonan-7-yl)-1-oxoisoindolin-2-yl)piperidine-2,6-dione] | < 1 nM | – | 6.70 to 7.70 | < 10 nM | 539 ng·h/mL | – | –
6 | CCc1c(F)ccc2cc(O)cc(-c3ncc4c(N5CCC[C@@](C)(O)C5)nc(OCC5(CN6CCC(C)(CN7CCC(N8CCN(c9ccc%10c(c9)CN([C@H]9CCC(=O)NC9=O)C%10=O)CC8)CC7)CC6)CC5)nc4c3F)c12 [Compound 213, (S)-3-(5-(4-(1-((1-((1-(((7-(8-ethyl-7-fluoro-3-hydroxynaphthalen-1-yl)-8-fluoro-4-((R)-3-hydroxy-3-methylpiperidin-1-yl)pyrido[4,3-d]pyrimidin-2-yl)oxy)methyl)cyclopropyl)methyl)-4-methylpiperidin-4-yl)methyl)piperidin-4-yl)piperazin-1-yl)-1-oxoisoindolin-2-yl)piperidine-2,6-dione] | < 1 nM | – | > 7.70 | < 10 nM | 1360 ng·h/mL | – | –
7 | CCc1c(F)ccc2cc(O)cc(-c3ncc4c(N5CCC[C@@](C)(O)C5)nc(OCC5(CN6CCC7(CCC(N8CCN(c9cc(F)c(C%10CCC(=O)NC%10=O)c(F)c9)CC8)CC7)CC6)CC5)nc4c3F)c12 (stereo partly drawn) [Compound 51, 3-{4-[4-(3-{[1-({[7-(8-ethyl-7-fluoro-3-hydroxynaphthalen-1-yl)-8-fluoro-4-[(3R)-3-hydroxy-3-methylpiperidin-1-yl]pyrido[4,3-d]pyrimidin-2-yl]oxy}methyl)cyclopropyl]methyl}-3-azaspiro[5.5]undecan-9-yl)piperazin-1-yl]-2,6-difluorophenyl}piperidine-2,6-dione] | 1 to 10 nM | – | 6.70 to 7.70 | – | 2280 ng·h/mL | < 10 nM | –
8 | CCc1c(F)ccc2cc(O)cc(-c3ncc4c(N5CCC[C@@](C)(O)C5)nc(OCC5(CN6CC(F)(CN7CC8(CCN(c9ccc%10c(c9)CN([C@H]9CCC(=O)NC9=O)C%10=O)CC8)C7)C6)CC5)nc4c3F)c12 [Compound 68, (S)-3-(5-(2-((1-((1-(((7-(8-ethyl-7-fluoro-3-hydroxynaphthalen-1-yl)-8-fluoro-4-((R)-3-hydroxy-3-methylpiperidin-1-yl)pyrido[4,3-d]pyrimidin-2-yl)oxy)methyl)cyclopropyl)methyl)-3-fluoroazetidin-3-yl)methyl)-2,7-diazaspiro[3.5]nonan-7-yl)-1-oxoisoindolin-2-yl)piperidine-2,6-dione] | 1 to 10 nM | – | < 6.70 | < 10 nM | 901 ng·h/mL | – | –
9 | CCc1c(F)ccc2cc(O)cc(-c3ncc4c(N5CCC[C@@](C)(O)C5)nc(OCC5(CN6CCC(OC7CCC8(CC7)CN(c7ccc9c(c7)CN(C7CCC(=O)NC7=O)C9=O)C8)CC6)CC5)nc4c3F)c12 (stereo partly drawn) [Compound 184, 3-[5-[7-[[1-[[1-[[7-(8-ethyl-7-fluoro-3-hydroxy-1-naphthyl)-8-fluoro-4-[(3R)-3-hydroxy-3-methyl-1-piperidyl]pyrido[4,3-d]pyrimidin-2-yl]oxymethyl]cyclopropyl]methyl]-4-piperidyl]oxy]-2-azaspiro[3.5]nonan-2-yl]-1-oxo-isoindolin-2-yl]piperidine-2,6-dione] | < 1 nM | – | < 6.70 | < 10 nM | 12500 ng·h/mL | – | –
10 | CCc1cccc2cc(O)cc(-c3ncc4c(N5CCC[C@@](C)(O)C5)nc(OCC5(CN6CCC(F)(CN7CCN(c8ccc9c(c8)CN([C@H]8CCC(=O)NC8=O)C9=O)CC7)CC6)CC5)nc4c3F)c12 [Compound 33, (S)-3-(5-(4-((1-((1-(((7-(8-ethyl-3-hydroxynaphthalen-1-yl)-8-fluoro-4-((R)-3-hydroxy-3-methylpiperidin-1-yl)pyrido[4,3-d]pyrimidin-2-yl)oxy)methyl)cyclopropyl)methyl)-4-fluoropiperidin-4-yl)methyl)piperazin-1-yl)-1-oxoisoindolin-2-yl)piperidine-2,6-dione] | < 1 nM | – | 6.70 to 7.70 | < 10 nM | 509 ng·h/mL | – | –
11 | CCc1c(F)ccc2cc(O)cc(-c3ncc4c(N5CCC[C@@](C)(O)C5)nc(OCC5(CN6CCC(OC7CC8(CCN(c9ccc%10c(c9)CN(C9CCC(=O)NC9=O)C%10=O)CC8)C7)CC6)CC5)nc4c3F)c12 (stereo partly drawn) [Compound 182, 3-[5-[2-[[1-[[1-[[7-(8-ethyl-7-fluoro-3-hydroxy-1-naphthyl)-8-fluoro-4-[(3R)-3-hydroxy-3-methyl-1-piperidyl]pyrido[4,3-d]pyrimidin-2-yl]oxymethyl]cyclopropyl]methyl]-4-piperidyl]oxy]-7-azaspiro[3.5]nonan-7-yl]-1-oxo-isoindolin-2-yl]piperidine-2,6-dione] | < 1 nM | – | 6.70 to 7.70 | < 10 nM | 4900 ng·h/mL | – | –
12 | CCc1c(F)ccc2cc(O)cc(-c3ncc4c(N5CCCC6(CCO6)C5)nc(OCC5(CN6CCC(F)(CN7CCN(c8ccc9c(c8)CN([C@H]8CCC(=O)NC8=O)C9=O)CC7)CC6)CC5)nc4c3F)c12 (stereo partly drawn) [Compound 41, (3S)-3-(5-(4-((1-((1-(((7-(8-ethyl-7-fluoro-3-hydroxynaphthalen-1-yl)-8-fluoro-4-(1-oxa-6-azaspiro[3.5]nonan-6-yl)pyrido[4,3-d]pyrimidin-2-yl)oxy)methyl)cyclopropyl)methyl)-4-fluoropiperidin-4-yl)methyl)piperazin-1-yl)-1-oxoisoindolin-2-yl)piperidine-2,6-dione] | 1 to 10 nM | – | 6.70 to 7.70 | < 10 nM | 1850 ng·h/mL | – | –
